According to PMC6700223 (Frontiers in Microbiology, 2019):

Tests used:
[1] = format: physicochemical; conditions: pH 7.2
[2] = test system: LASV GPC protein-mediated cell–cell fusion (293T/LASV/EGFP cells and Huh-7 cells); conditions: pH 5; for IC50: 12 h

Compound	α-helical ratio [1]	IC50 [2]	Inhibition of cell–cell fusion at 20 μM [2]
CC[C@H](C)[C@H](NC(=O)[C@H](CC(=O)O)NC(=O)[C@H](CC(=O)O)NC(=O)[C@H](CO)NC(=O)[C@H](Cc1ccccc1)NC(=O)[C@H](Cc1c[nH]cn1)NC(=O)[C@@H](NC(=O)[C@H](CCC(=O)O)NC(=O)[C@H](CC(N)=O)NC(=O)[C@H](CC(C)C)NC(=O)[C@H](Cc1ccc(O)cc1)NC(=O)[C@H](CO)NC(=O)CNC(=O)[C@H](CC(N)=O)NC(=O)[C@H](CO)NC(=O)[C@@H](NC(=O)[C@H](CC(C)C)NC(=O)[C@H](Cc1c[nH]c2ccccc12)NC(=O)[C@@H](N)CS)C(C)C)[C@@H](C)O)C(=O)N[C@@H](CCC(=O)O)C(=O)N[C@@H](CCC(N)=O)C(=O)N[C@@H](CCC(N)=O)C(=O)N[C@@H](C)C(=O)N[C@@H](CC(=O)O)C(=O)N[C@@H](CC(N)=O)C(=O)N[C@@H](CCSC)C(=O)N[C@H](C(=O)N[C@H](C(=O)N[C@@H](CCC(=O)O)C(=O)N[C@@H](CCSC)C(=O)N[C@@H](CC(C)C)C(=O)N[C@@H](CCC(N)=O)C(=O)N[C@@H](CCCCN)C(=O)N[C@@H](CCC(=O)O)C(=O)N[C@@H](Cc1ccc(O)cc1)C(=O)N[C@@H](CCSC)C(=O)N[C@@H](CCC(=O)O)C(=O)N[C@@H](CCCNC(=N)N)C(=O)N[C@@H](CCC(N)=O)C(=O)NCC(=O)N[C@@H](CCCCN)C(=O)N[C@H](C(=O)N1CCC[C@H]1C(=O)N[C@@H](CC(C)C)C(=O)NCC(=O)N[C@@H](CC(C)C)C(=O)N[C@H](C(=O)N[C@@H](CC(=O)O)C(=O)O)C(C)C)[C@@H](C)O)[C@@H](C)O)[C@@H](C)CC [HR2-1]	28%	0.37 µM	completely inhibit
CC[C@H](C)[C@H](NC(=O)[C@H](CC(=O)O)NC(=O)[C@H](CC(=O)O)NC(=O)[C@H](CO)NC(=O)[C@H](Cc1ccccc1)NC(=O)[C@H](Cc1c[nH]cn1)NC(=O)[C@@H](NC(=O)[C@H](CCC(=O)O)NC(=O)[C@H](CC(N)=O)NC(=O)[C@H](CC(C)C)NC(=O)[C@H](Cc1ccc(O)cc1)NC(=O)[C@@H](N)CO)[C@@H](C)O)C(=O)N[C@@H](CCC(=O)O)C(=O)N[C@@H](CCC(N)=O)C(=O)N[C@@H](CCC(N)=O)C(=O)N[C@@H](C)C(=O)N[C@@H](CC(=O)O)C(=O)N[C@@H](CC(N)=O)C(=O)N[C@@H](CCSC)C(=O)N[C@H](C(=O)N[C@H](C(=O)N[C@@H](CCC(=O)O)C(=O)N[C@@H](CCSC)C(=O)N[C@@H](CC(C)C)C(=O)N[C@@H](CCC(N)=O)C(=O)N[C@@H](CCCCN)C(=O)N[C@@H](CCC(=O)O)C(=O)N[C@@H](Cc1ccc(O)cc1)C(=O)N[C@@H](CCSC)C(=O)N[C@@H](CCC(=O)O)C(=O)N[C@@H](CCCNC(=N)N)C(=O)N[C@@H](CCC(N)=O)C(=O)NCC(=O)N[C@@H](CCCCN)C(=O)N[C@H](C(=O)N1CCC[C@H]1C(=O)N[C@@H](CC(C)C)C(=O)O)[C@@H](C)O)[C@@H](C)O)[C@@H](C)CC [HR2-2]	–	26.4 µM	30–40%
